Source: patent US20100092549A1, “Dosage Form Containing Two or More Active Pharmaceutical Ingredients in Different Physical Forms” (priority 2007, published 2010)
Where a name gives a salt, the structure may show the parent alone.

Test: Related substance testing by HPLC on interaction samples after storage
Assay type: physicochemical
[1] = 40/75: incubator 40° C./75% RH for 6 days

Procedure: The APIs alone and two initial, conventional finished dosage forms were analysed under three different storage conditions, ie. cold room storage, kept in an oven at 60° C. for 7 days and stored in an incubator held at 40° C./75% RH for 6 days. The mixtures of one or both APIs with an excipient were analysed under two different storage conditions, ie. kept in an oven at 60° C. for 7 days and stored in an incubator held at 40° C./75% RH for 6 days.
The list of samples are as follows: • Fluoxetine HCl alone • Olanzapine alone • Fluoxetine HCl/Olanzapine Capsules • Fluoxetine HCl+Microcrystalline cellulose • Fluoxetine HCl+Pregelatinised maize starch • Fluoxetine HCl+Maize starch • Fluoxetine HCl+Magnesium stearate • Fluoxetine HCl+Olanzapine • Fluoxetine HCl+Olanzapine+Microcrystalline cellulose • Fluoxetine HCl+Olanzapine+Pregelatinised maize starch • Fluoxetine HCl+Olanzapine+Maize starch • Fluoxetine HCl+Olanzapine+Magnesium stearate • Olanzapine Tablets • Olanzapine+Lactose monohydrate • Olanzapine+Microcrystalline cellulose • Olanzapine+Maize starch • Olanzapine+Pregelatinised maize starch • Olanzapine+Crospovidone • Olanzapine+Magnesium stearate • Olanzapine+Opadry® II coating ingredients
The samples were analysed after the allotted period of time and the level of known and unknown related substances were determined by HPLC.

Impurity 1 (unknown related substance) [1]: 0.041 | Impurity 2 (unknown related substance) [1]: 0.069 | Impurity 1 (unknown related substance) (CR: cold room storage): 0.034 | Impurity 2 (unknown related substance) (CR: cold room storage): 0.068 | Impurity 1 (unknown related substance) (Oven: 60° C. for 7 days): 0.039 | Impurity 2 (unknown related substance) (Oven: 60° C. for 7 days): 0.067
SMILES: CNCCC(Oc1ccc(C(F)(F)F)cc1)c1ccccc1 (stereo not drawn) [Fluox API, Fluoxetine HCl]
